Values quoted from earlier work, collected in patent EP0424512B1, “ANTIMETASTATIC PEPTIDES” (SRI INTERNATIONAL, priority 1989, dated 1990).

Test system: human fibrosarcoma HT-1080 and Chinese hamster ovary cells
Conditions: relative to laminin

In the case of “CDPGYIGSR [nine amino acid peptide from domain III of laminin B₁ chain]”, the “activity of laminin in cell attachment on a molar basis” value is given as 0.5-1%.
